For nine molecules, carcinogen call results are on record in PubChem BioAssay AID1259411 (Chemical Carcinogenesis Research Information System (CCRIS), 2018).

This data set relates to rodent carcinogenicity bioassays, tumor incidence. The data set can be described thus: CCRIS carcinogenicity studies. The method in brief:
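NCI-built, expert-reviewed records of carcinogenicity and related test outcomes (mutagenicity, tumor promotion/inhibition) compiled from published and report sources, historical span 1985-2011, not updated.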

SMILES strings stand for the structures. Active and inactive are the calls of the source. No rule for the calls is given here.

As to `c1ccc2[nH]c(-c3cscn3)nc2c1`, the carcinogen call was “inactive; negative” (Species: MOUSE, Strain/Sex: CD-1/FEMALE, Route: ORAL, Dose: 0, 0.031, 0.125, 0.5% IN DIET FOR 78 WK (STUDY DURATION: 78 WK), Dose: 0, 0.031, 0.125, 0.5% IN DIET FOR 78 WK (STUDY DURATION: 78 WK)); “inactive; negative” (Species: MOUSE, Strain/Sex: CD-1/MALE, Route: ORAL, Dose: 0, 0.031, 0.125, 0.5% IN DIET FOR 78 WK (STUDY DURATION: 78 WK), Dose: 0, 0.031, 0.125, 0.5% IN DIET FOR 78 WK (STUDY DURATION: 78 WK)); “inactive; negative” (Species: MOUSE, Strain/Sex: ICR/MALE, Route: ORAL, Dose: 0, 0.8, 1.2, 1.6% IN DIET FOR 44 WK (STUDY DURATION: 44 WK), Dose: 0, 0.8, 1.2, 1.6% IN DIET FOR 44 WK (STUDY DURATION: 44 WK)); “inactive; negative” (Species: RAT, Strain/Sex: F344/FEMALE, Route: ORAL, Dose: 0, 0.05, 0.1, 0.2, 0.4% IN DIET FOR 104 WK (STUDY DURATION: 104 WK), Dose: 0, 0.05, 0.1, 0.2, 0.4% IN DIET FOR 104 WK (STUDY DURATION: 104 WK)); “inactive; negative” (Species: RAT, Strain/Sex: F344/MALE, Route: ORAL, Dose: 0, 0.05, 0.1, 0.2, 0.4% IN DIET FOR 104 WK (STUDY DURATION: 104 WK), Dose: 0, 0.05, 0.1, 0.2, 0.4% IN DIET FOR 104 WK (STUDY DURATION: 104 WK)).

As to `NC(=O)NC1NC(=O)NC1=O` (centres undefined), the carcinogen call is, setting by setting: (Species: RAT, Strain/Sex: F344/FEMALE, Route: ORAL, Dose: 0, 2000 PPM IN DIET FOR 106 WK (STUDY DURATION: 130 WK)) “inactive; negative”; (Species: RAT, Strain/Sex: F344/MALE, Route: ORAL, Dose: 0, 2000 PPM IN DIET FOR 106 WK (STUDY DURATION: 130 WK)) “inactive; negative”.

On to `CC(C)CBr`, for which the carcinogen call (Species: MOUSE, Route: INTRAPERITONEAL, Tumor Site: Type of Lesion: LUNG) was “active; positive”.

`O=NN1CC=CC[C@H]1c1cccnc1`: the carcinogen call was “inactive; negative” (Species: RAT, Strain/Sex: F344/FEMALE, Route: SUBCUTANEOUS, Dose: 0, 1, 3, 9 MMOL/KG BW (TOTAL DOSE) WITH SUBDOSES GIVEN 3/WK FOR 20 WK WITH A 2 WK INTERRUPTION AFTER 7 WK (STUDY DURATIO, Dose: 0, 1, 3, 9 MMOL/KG BW (TOTAL DOSE) WITH SUBDOSES GIVEN 3/WK FOR 20 WK WITH A 2 WK INTERRUPTION AFTER 7 WK (STUDY DURATIO) and “inactive; negative” (Species: RAT, Strain/Sex: F344/MALE, Route: SUBCUTANEOUS, Dose: 0, 1, 3, 9 MMOL/KG BW (TOTAL DOSE) WITH SUBDOSES GIVEN 3/WK FOR 20 WK WITH A 2 WK INTERRUPTION AFTER 7 WK (STUDY DURATIO, Dose: 0, 1, 3, 9 MMOL/KG BW (TOTAL DOSE) WITH SUBDOSES GIVEN 3/WK FOR 20 WK WITH A 2 WK INTERRUPTION AFTER 7 WK (STUDY DURATIO).

On to `COC(=O)C(c1ccccc1)C1CCCCN1` (centres undefined), for which the carcinogen call reads like this: (Species: MOUSE, Strain/Sex: B6C3F1/FEMALE, Route: ORAL, Dose: 0, 50, 250, 500 PPM IN DIET FOR 2 YR (STUDY DURATION: 2 YR), Dose: 0, 50, 250, 500 PPM IN DIET FOR 2 YR (STUDY DURATION: 2 YR), Tumor Site: Type of Lesion: LIVER: HEPATOCELLULAR ADENOMA) “active; positive”; (Species: MOUSE, Strain/Sex: B6C3F1/MALE, Route: ORAL, Dose: 0, 50, 250, 500 PPM IN DIET FOR 2 YR (STUDY DURATION: 2 YR), Dose: 0, 50, 250, 500 PPM IN DIET FOR 2 YR (STUDY DURATION: 2 YR), Tumor Site: Type of Lesion: LIVER: HEPATOCELLULAR ADENOMA, HEPATOBLASTOMA) “active; positive”; (Species: RAT, Strain/Sex: F344/FEMALE, Route: ORAL, Dose: 0, 100, 500, 1000 PPM IN DIET FOR 2 YR (STUDY DURATION: 2 YR), Dose: 0, 100, 500, 1000 PPM IN DIET FOR 2 YR (STUDY DURATION: 2 YR)) “inactive; negative”; (Species: RAT, Strain/Sex: F344/MALE, Route: ORAL, Dose: 0, 100, 500, 1000 PPM IN DIET FOR 2 YR (STUDY DURATION: 2 YR), Dose: 0, 100, 500, 1000 PPM IN DIET FOR 2 YR (STUDY DURATION: 2 YR)) “inactive; negative”.

As to `ClCC1CO1` (centres undefined), the carcinogen call by setting is: (Species: MOUSE, Route: DERMAL, Tumor Site: Type of Lesion: INTEGUMENTARY SYSTEM (SKIN)) “active; positive”; (Species: MOUSE, Route: SUBCUTANEOUS, Tumor Site: Type of Lesion: INJECTION SITE) “active; positive”; (Species: RAT, Strain/Sex: WISTAR/FEMALE, Route: GAVAGE, Dose: 0, 2, 10 MG/KG IN WATER 5 D/WK FOR 104 WK (STUDY DURATION: 24 MO), Dose: 0, 2, 10 MG/KG IN WATER 5 D/WK FOR 104 WK (STUDY DURATION: 24 MO), Tumor Site: Type of Lesion: FORESTOMACH: SQUAMOUS CELL CARCINOMA) “active; positive”; (Species: RAT, Strain/Sex: WISTAR/MALE, Route: GAVAGE, Dose: 0, 2, 10 MG/KG IN WATER 5 D/WK FOR 104 WK (STUDY DURATION: 24 MO), Dose: 0, 2, 10 MG/KG IN WATER 5 D/WK FOR 104 WK (STUDY DURATION: 24 MO), Tumor Site: Type of Lesion: FORESTOMACH: SQUAMOUS CELL CARCINOMA) “active; positive”.

As for `CCOC(=O)CC(SP(=O)(OC)OC)C(=O)OCC` (centres undefined), the carcinogen call was “inactive; negative” (Species: MOUSE, Strain/Sex: B6C3F1/FEMALE, Route: ORAL, Dose: 0, 500, 1000 PPM IN DIET, Dose: 0, 500, 1000 PPM IN DIET); “inactive; negative” (Species: MOUSE, Strain/Sex: B6C3F1/MALE, Route: ORAL, Dose: 0, 500, 1000 PPM IN DIET, Dose: 0, 500, 1000 PPM IN DIET); “inactive; negative” (Species: RAT, Strain/Sex: F344/FEMALE, Route: ORAL, Dose: 0, 500, 1000 PPM IN DIET, Dose: 0, 500, 1000 PPM IN DIET); “inactive; negative” (Species: RAT, Strain/Sex: F344/MALE, Route: ORAL, Dose: 0, 500, 1000 PPM IN DIET, Dose: 0, 500, 1000 PPM IN DIET).

Consider `OO`, for which, where the note is “Species: MOUSE, Strain/Sex: C57BL/MALE,FEMALE, Route: ORAL, Dose: 0, 0.1%, 0.4% IN DRINKING WATER (STUDY DURATION: 108 WK), Dose: 0, 0.1%, 0.4% IN DRINKING WATER (STUDY DURATION: 108 WK), Tumor Site: Type of Lesion: DUODENUM: ADENOMA, ADENOCARCINOMA”, the carcinogen call is “active; positive”.

For the molecule `O=S(=O)(O)c1ccc(N=Nc2cc(S(=O)(=O)O)c3ccccc3c2O)c2ccccc12`, the carcinogen call was “inactive; negative” (Species: MOUSE, Strain/Sex: B6C3F1/FEMALE, Route: ORAL, Dose: 0, 3000, 6000 PPM IN DIET, Dose: 0, 3000, 6000 PPM IN DIET); “inactive; negative” (Species: MOUSE, Strain/Sex: B6C3F1/MALE, Route: ORAL, Dose: 0, 3000, 6000 PPM IN DIET, Dose: 0, 3000, 6000 PPM IN DIET); “inactive; negative” (Species: RAT, Strain/Sex: F344/FEMALE, Route: ORAL, Dose: 0, 12500, 25000 PPM IN DIET, Dose: 0, 12500, 25000 PPM IN DIET); “inactive; negative” (Species: RAT, Strain/Sex: F344/MALE, Route: ORAL, Dose: 0, 6000, 12500 PPM IN DIET, Dose: 0, 6000, 12500 PPM IN DIET); “inactive; negative” (Species: RAT, Strain/Sex: WISTAR/FEMALE, Route: ORAL, Dose: 0, 100, 400, 1200 MG/KG/D IN BASAL DIET TO PUPS OF PARENTS EXPOSED TO THE SAME DOSE LEVELS FOR 9 WK PRIOR TO MATING AND, Dose: 0, 100, 400, 1200 MG/KG/D IN BASAL DIET TO PUPS OF PARENTS EXPOSED TO THE SAME DOSE LEVELS FOR 9 WK PRIOR TO MATING AND); “inactive; negative” (Species: RAT, Strain/Sex: WISTAR/MALE, Route: ORAL, Dose: 0, 100, 400, 1200 MG/KG/D IN BASAL DIET TO PUPS OF PARENTS EXPOSED TO THE SAME DOSE LEVELS FOR 9 WK PRIOR TO MATING AND, Dose: 0, 100, 400, 1200 MG/KG/D IN BASAL DIET TO PUPS OF PARENTS EXPOSED TO THE SAME DOSE LEVELS FOR 9 WK PRIOR TO MATING AND).
